Test systems include SNB-75 CNS; MOLT-4 leukemia; MDA-MB-231 breast; HS 578T breast; M14 melanoma; DU-145 prostate; HCT-15 colon; KM12 colon; UACC-62 melanoma; HT29 colon.
Holding throughout (assay): DTP human tumour cell line panel, 48 h

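How tested: cells in 96-well plates exposed to compound for 48 hours at five concentrations. The concentration for full growth arrest is given as TGI.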 Bounds are passed on as bounds.

As to `O=P(O)(O)c1ccccc1Oc1ccccc1`, the TGI in the test with SNB-75 CNS, in the test on MOLT-4 leukemia, in the test with MDA-MB-231 breast, with HS 578T breast, with M14 melanoma and in the test on DU-145 prostate was > 100 µM in each case. Also, the TGI with HCT-15 colon, in the test with KM12 colon and in the test on UACC-62 melanoma was > 100 µM in each case.

Regarding `O=C(O)c1cccc2cccc(-c3cccc4cccc(C(=O)O)c34)c12`, the TGI with SNB-75 CNS, in the test with MDA-MB-231 breast, in the test on HS 578T breast, with M14 melanoma, in the test with DU-145 prostate and with HCT-15 colon was > 100 µM throughout. The TGI with KM12 colon, in the test on UACC-62 melanoma and with HT29 colon was > 100 µM each time.

On to `NC(=O)c1csc(C2(O)COC(CO)C2O)n1` (stereo unspecified), for which the TGI in the test on SNB-75 CNS, with MDA-MB-231 breast, with HS 578T breast, in the test on M14 melanoma, with DU-145 prostate and with HCT-15 colon was > 100 µM throughout. Besides, the TGI with KM12 colon, in the test on UACC-62 melanoma and with HT29 colon was > 100 µM each time.

On to `CC(C)C(=O)C(C)(C)CCc1ccccn1`, for which the TGI in the test on SNB-75 CNS, in the test on MDA-MB-231 breast, in the test with HS 578T breast, in the test on M14 melanoma, in the test on DU-145 prostate and in the test on HCT-15 colon was > 100 µM throughout. The TGI with KM12 colon, in the test on UACC-62 melanoma and in the test on HT29 colon was > 100 µM each time.

On to `CS(=O)(=O)Nc1ccc2c(c1)N(S(C)(=O)=O)CC2CCl` (stereo unspecified), for which the TGI in the test with SNB-75 CNS, in the test with MOLT-4 leukemia, in the test on MDA-MB-231 breast, in the test on HS 578T breast, in the test with DU-145 prostate and with HCT-15 colon was > 100 µM each time. For the same compound, the TGI in the test with KM12 colon, with UACC-62 melanoma and in the test with HT29 colon was > 100 µM in each case.

`C=C1OC(c2ccccc2NC)=NC12CCCCC2`: the TGI with MOLT-4 leukemia, with MDA-MB-231 breast, with HS 578T breast, in the test with M14 melanoma, in the test on DU-145 prostate and in the test with HCT-15 colon was > 100 µM each time. Further, the TGI in the test on KM12 colon, with UACC-62 melanoma and in the test on HT29 colon was > 100 µM each time.

On to `O=C1NC2CCCCC2N=C1CC(=O)c1ccc(Br)cc1` (stereo unspecified), for which the TGI (in general, the concentration at which net growth stops) in the test with MOLT-4 leukemia was > 100 µM; with MDA-MB-231 breast it was 35.7 µM; in the test with HS 578T breast, 42.1 µM; in the test with M14 melanoma, > 100 µM; with DU-145 prostate, > 100 µM; with HCT-15 colon, > 100 µM. The TGI in the test with KM12 colon, in the test on UACC-62 melanoma and with HT29 colon was > 100 µM throughout.

For the compound `O=c1c(Cc2ccc(Cl)cc2)nnc2sc(-c3ccc(-c4ccc(F)c(Cl)c4)o3)nn12`, the concentration for total growth inhibition (TGI) in the test on MOLT-4 leukemia, in the test with MDA-MB-231 breast, in the test with HS 578T breast, in the test on M14 melanoma, with DU-145 prostate and in the test with HCT-15 colon was > 100 µM each time. The TGI in the test with KM12 colon, in the test on UACC-62 melanoma and in the test with HT29 colon was > 100 µM in each case.

Regarding `N#CC1(O)CCCCCCCCCCC1`, the total growth inhibition concentration (TGI) in the test on MOLT-4 leukemia, with MDA-MB-231 breast, with HS 578T breast, in the test on M14 melanoma, in the test on DU-145 prostate and with HCT-15 colon was > 100 µM in each case. In addition, the TGI in the test with KM12 colon, in the test with UACC-62 melanoma and in the test with HT29 colon was > 100 µM in each case.

Take `CCn1c2ccc(C(=O)CCCN3CCCCC3)cc2c2cc(C(=O)CCCN3CCCCC3)ccc21`: the TGI in the test on SNB-75 CNS stood at 8.26 µM; in the test with MDA-MB-231 breast, 4.74 µM; in the test on HS 578T breast it was 7.06 µM; with M14 melanoma, 3.6 µM; in the test with DU-145 prostate it was 18.2 µM; in the test with HCT-15 colon it was 5.45 µM. Also, the TGI in the test on KM12 colon is 8.76 µM; with UACC-62 melanoma it was 38.8 µM; in the test with HT29 colon, 4.2 µM.

For `CSc1nc(NC(C)C)c2c(n1)Sc1nc3ccccc3n1N=C2`, the TGI in the test on MOLT-4 leukemia is > 100 µM; in the test with MDA-MB-231 breast, 30.2 µM; in the test with HS 578T breast it was 54.5 µM; with M14 melanoma, > 100 µM; in the test on DU-145 prostate, 31.3 µM; with HCT-15 colon it was > 100 µM. Also, the TGI in the test with KM12 colon is 60.9 µM; with UACC-62 melanoma, 23.6 µM; in the test with HT29 colon, > 100 µM.

On to `c1cncc(CC2(c3cc4ccccc4[nH]3)OCCO2)c1`, for which the TGI in the test on SNB-75 CNS, in the test with MDA-MB-231 breast, with HS 578T breast, in the test with DU-145 prostate, in the test with HCT-15 colon and in the test with KM12 colon was > 100 µM in each case. Also, the TGI with UACC-62 melanoma and with HT29 colon was > 100 µM throughout.

On to `Nc1nc(Cl)cc(NCC2(O)CC2)n1`, for which the concentration for total growth inhibition (TGI) with SNB-75 CNS, in the test on MOLT-4 leukemia, in the test on MDA-MB-231 breast, in the test on HS 578T breast, in the test on DU-145 prostate and in the test with HCT-15 colon was > 100 µM each time. The TGI with KM12 colon, in the test on UACC-62 melanoma and with HT29 colon was > 100 µM in each case.

The record behind these values is PubChem BioAssay (NCI).
